Data: patent publication US7087642B2 (priority 1999, dated 2006)
Like-named read-outs stand apart in the source and are kept apart here.

How the values were obtained:
[1] = biological target: IMPDH human type II (Homo sapiens, UniProt P12268); experiment: biochemical
[2] = test system: human PBMC T cells; experiment: cells; format: cell-based; conditions: read-out: T-cells (IC50)
[3] = test system: human PBMC B cells; experiment: cells; format: cell-based; conditions: read-out: B-cells (IC50)

Row | Structure (SMILES) | Ki ([1]; read-out: Ki) [nM] | IC50 ([2]; Homo sapiens, 72 h) [nM] | IC50 ([3]; Homo sapiens, 72 h) [nM] | Ki [1] [nM] | IC50 [2] [nM] | IC50 [3] [nM]
1 | COc1cc(NC(=O)Nc2cccc(CNC(=O)O[C@H](CN(CC3CC3)C(C)C)c3ccccc3)c2)ccc1-c1cnco1 [Compound 110] | > 50 | 100 to 1000 | < 100 |  |  | 
2 | CCCN(CC(C)C)CC(OC(=O)NCc1cccc(NC(=O)Nc2ccc(-c3cnco3)c(OC)c2)c1)c1ccccc1 (stereo not drawn) [Compound 112] | > 50 | > 1000 | > 1000 |  |  | 
3 | CCCN(CCC)CC(OC(=O)NCc1cccc(NC(=O)Nc2ccc(-c3cnco3)c(OC)c2)c1)c1ccccc1 (stereo not drawn) [Compound 113] | > 50 | > 1000 | > 1000 |  |  | 
4 | CCCN(CC1CC1)CC(OC(=O)NCc1cccc(NC(=O)Nc2ccc(-c3cnco3)c(OC)c2)c1)c1ccccc1 (stereo not drawn) [Compound 114] | > 50 | > 1000 | > 1000 |  |  | 
5 | CCN(CC(C)C)CC(OC(=O)NCc1cccc(NC(=O)Nc2ccc(-c3cnco3)c(OC)c2)c1)c1ccccc1 (stereo not drawn) [Compound 115] | > 50 | > 1000 | > 1000 |  |  | 
6 | COc1cc(NC(=O)Nc2cccc(CNC(=O)OC(CN(CC(C)C)CC(C)C)c3ccccc3)c2)ccc1-c1cnco1 (stereo not drawn) [Compound 116] | > 50 | > 1000 | > 1000 |  |  | 
7 | COc1cc(NC(=O)Nc2cccc(CNC(=O)OC(CN(CC(C)C)CC3CC3)c3ccccc3)c2)ccc1-c1cnco1 (stereo not drawn) [Compound 117] | > 50 | > 1000 | > 1000 |  |  | 
8 | CCCN(C)CCC(OC(=O)NCc1cccc(NC(=O)Nc2ccc(-c3cnco3)c(OC)c2)c1)c1ccccc1 (stereo not drawn) [Compound 118] | > 50 | 100 to 1000 | 100 to 1000 |  |  | 
9 | CCCN(CC)CCC(OC(=O)NCc1cccc(NC(=O)Nc2ccc(-c3cnco3)c(OC)c2)c1)c1ccccc1 (stereo not drawn) [Compound 119] | > 50 | 100 to 1000 | 100 to 1000 |  |  | 
10 | CCCN(CCC(OC(=O)NCc1cccc(NC(=O)Nc2ccc(-c3cnco3)c(OC)c2)c1)c1ccccc1)CC(C)C (stereo not drawn) [Compound 120] | > 50 | > 1000 | > 1000 |  |  | 
11 | CCCN(CCC(OC(=O)NCc1cccc(NC(=O)Nc2ccc(-c3cnco3)c(OC)c2)c1)c1ccccc1)CC1CC1 (stereo not drawn) [Compound 122] | > 50 | > 1000 | > 1000 |  |  | 
12 | CCCN(CCC)CCC(OC(=O)NCc1cccc(NC(=O)Nc2ccc(-c3cnco3)c(OC)c2)c1)c1ccccc1 (stereo not drawn) [Compound 123] | > 50 | > 1000 | > 1000 |  |  | 
13 | CCN(CCC(OC(=O)NCc1cccc(NC(=O)Nc2ccc(-c3cnco3)c(OC)c2)c1)c1ccccc1)CC(C)C (stereo not drawn) [Compound 125] | > 50 | 100 to 1000 | 100 to 1000 |  |  | 
14 | COc1cc(NC(=O)Nc2cccc(CNC(=O)OC(CCN(CC(C)C)CC(C)C)c3ccccc3)c2)ccc1-c1cnco1 (stereo not drawn) [Compound 126] | > 50 | > 1000 | > 1000 |  |  | 
15 | COc1cc(NC(=O)Nc2cccc(CNC(=O)OC(CCN(CC(C)C)CC3CC3)c3ccccc3)c2)ccc1-c1cnco1 (stereo not drawn) [Compound 127] | > 50 | > 1000 | > 1000 |  |  | 
16 | COc1cc(NC(=O)Nc2cccc(CNC(=O)OC(CCN(C)C(C)C)c3ccccc3)c2)ccc1-c1cnco1 (stereo not drawn) [Compound 128] | > 50 | 100 to 1000 | 100 to 1000 |  |  | 
17 | CCN(CCC(OC(=O)NCc1cccc(NC(=O)Nc2ccc(-c3cnco3)c(OC)c2)c1)c1ccccc1)C(C)C (stereo not drawn) [Compound 129] | > 50 | 100 to 1000 | 100 to 1000 |  |  | 
18 | COc1cc(NC(=O)Nc2cccc(CNC(=O)OC(CCN(CC(C)C)C(C)C)c3ccccc3)c2)ccc1-c1cnco1 (stereo not drawn) [Compound 130] | > 50 | 100 to 1000 | > 1000 |  |  | 

Row | Structure (SMILES) | Ki ([1]; read-out: Ki) [nM] | IC50 ([2]; Homo sapiens, 72 h) [nM] | IC50 ([3]; Homo sapiens, 72 h) [nM] | Ki [1] [nM] | IC50 [2] [nM] | IC50 [3] [nM]
19 | COc1cc(NC(=O)Nc2cccc(CNC(=O)OC(CCN(CC3CC3)C(C)C)c3ccccc3)c2)ccc1-c1cnco1 (stereo not drawn) [Compound 131] | > 50 | 100 to 1000 | 100 to 1000 |  |  | 
20 | CCN(CC)CC(OC(=O)Nc1ccc(NC(=O)Nc2ccc(-c3cnco3)c(OC)c2)cc1)C(C)(C)C (stereo not drawn) [Compound 132] | > 50 | 100 to 1000 | 100 to 1000 |  |  | 
21 | CCN(CC(OC(=O)NCc1cccc(NC(=O)Nc2ccc(-c3cnco3)c(OC)c2)c1)C1CCCCC1)C(C)C (stereo not drawn) [Compound 158] | 10 to 50 | > 1000 | 100 to 1000 |  |  | 
22 | CC[C@H](CCC#N)OC(=O)N[C@@H](C)c1cccc(NC(=O)Nc2ccc(C#N)c(OC)c2)c1 [Compound 162] | 10 to 50 | 100 to 1000 | 100 to 1000 |  |  | 
23 | CCC(CC#N)OC(=O)NC(C)c1cccc(NC(=O)Nc2ccc(-c3cnco3)c(OC)c2)c1 (stereo not drawn) [Compound 163] | 10 to 50 | < 100 | < 100 |  |  | 
24 | CCN(CC)C[C@@H](OC(=O)NC(C)c1cccc(NC(=O)Nc2ccc(-c3cnco3)c(OC)c2)c1)c1ccccc1 (stereo partly drawn) [Compound 166] | > 50 | 100 to 1000 | 100 to 1000 |  |  | 
25 | CC[C@H](CC#N)OC(=O)N[C@@H](C)c1cccc(NC(=O)Nc2ccc(C#N)c(OC)c2)c1 [Compound 169] |  | < 100 | < 100 | < 10 |  | 
26 | COc1cc(NC(=O)Nc2cccc([C@H](C)NC(=O)OCCC#N)c2)ccc1C#N [Compound 170] | < 10 | 100 to 1000 | 100 to 1000 |  |  | 
27 | COc1cc(NC(=O)Nc2cccc([C@@H](C)NC(=O)OCCC#N)c2)ccc1C#N [Compound 173] | > 50 | > 1000 | 100 to 1000 |  |  | 
28 | CCC(CC#N)OC(=O)N[C@H](C)c1cccc(NC(=O)Nc2ccc(C#N)c(OC)c2)c1 (stereo partly drawn) [Compound 174] |  |  |  | > 50 | > 1000 | 100 to 1000
29 | CCC(CO)OC(=O)N[C@H](C)c1cccc(NC(=O)Nc2ccc(C#N)c(OC)c2)c1 (stereo partly drawn) [Compound 175] | > 50 | > 1000 | > 1000 |  |  | 
30 | CC[C@H](CO)OC(=O)N[C@H](C)c1cccc(NC(=O)Nc2ccc(C#N)c(OC)c2)c1 [Compound 179] | > 50 | > 1000 | > 1000 |  |  | 
31 | CC[C@H](CO)OC(=O)N[C@@H](C)c1cccc(NC(=O)Nc2ccc(C#N)c(OC)c2)c1 [Compound 180] | 10 to 50 | 100 to 1000 | > 1000 |  |  | 
32 | CCC(CC#N)OC(=O)N[C@@H](C)c1cccc(NC(=O)Nc2ccc(-c3cnco3)c(OC)c2)c1 (stereo partly drawn) [Compound 181] | < 10 | < 100 | < 100 |  |  | 
33 | CCOc1cc(NC(=O)Nc2cccc([C@H](C)NC(=O)O[C@H](CC)CC#N)c2)ccc1C#N [Compound 182] | > 50 | > 1000 | 100 to 1000 |  |  | 
34 | COc1cc(NC(=O)Nc2cccc([C@H](C)NC(=O)O[C@H]3CCOC3)c2)ccc1C#N [Compound 185] | 10 to 50 |  |  |  | 100 to 1000 | 100 to 1000
35 | C[C@H](NC(=O)O[C@H]1CCOC1)c1cccc(NC(=O)Nc2ccc(C#N)c(Cl)c2)c1 [Compound 187] |  | 100 to 1000 | < 100 | 10 to 50 |  | 
